This passage reports inhibition in vivo results from US9944613B2, “Fumagillol spirocyclic compounds and fused bicyclic compounds and methods of making and using same” (Zafgen, Inc., priority 2015, dated 2018).

As usually defined, the inhibition in vivo is the relative decrease from the control value, in per cent.

In the experiment the test system is Diet Induced Obese (DIO) C57BL/6 mice. Briefly: 10 day DIO mouse model, weight loss vs. vehicle. The settings on record: 240 h, 0.3 mpk sc once a day for 10 days. The format is in vivo. The source says:
The objective of this study design was to investigate the efficacy of disclosed compounds in a 10 day DIO mouse model. Effects on body weight, food intake, hematology and blood chemistry were the primary readouts of this study design. Male, Diet Induced Obese (DIO) C57BL/6 mice, 19-21 weeks of age (13-15 weeks on high fat diet) were ordered from a certified vendor and upon receipt were housed on irradiated corncob bedding in micro-isolator cages on a 12-hour light-dark cycle (0700-1900) at 68-74° F. and 30-70% humidity. Mice were fed Research Diets D12492 (60% Kcal fat, 20% Kcal carbohydrate and 20% protein) and provided water ad libitum. DIO mice were received and housed in the facility for approximately two weeks prior to the start of test article administration. On Day −4 or −3, mice were randomized into study groups based on body weight and body weights were continued to be recorded daily for the duration of the study. Daily food intake was assessed starting on Study Day −2 by weighing of the food with hopper together to avoid loss of food in transfer.
Compounds were formulated into a 100% DMSO stock (at 9 mg/mL) prior to the start, and further diluted into the target working concentration using the vehicle of 10% DMSO in water. Prior to test article administration, starting on Day −3 a dosing acclimation occured with all animals receiving a subcutaneous injection of vehicle (10% DMSO) only for 3 days. Starting on Day 1, test compounds or vehicle were administered based on individual body weight, subcutaneously, once a day for 10 days. All mice were sacrificed on Day 11, 24 hours following the final dosing on Day 10. After sacrifice, whole blood was collected and analyzed for hematology and blood chemistry parameters.
Compounds were tested for weight loss vs. vehicle at 0.3 and 1.0 mpk sc (mg per kg animal weight delivered subcutaneously), and the results are shown in Table 2 below.
For the molecule `CO[C@@H]1[C@H](OC(=O)N2CCC3(CN(CC(F)F)C3)C2)CC[C@]2(CO2)[C@H]1[C@@]1(C)O[C@@H]1CC=C(C)C` [Example 15, (3R,4S,5S,6R)-5-methoxy-4-((2R,3R)-2-methyl-3-(3-methylbut-2-enyl)oxiran-2-yl)-1-oxaspiro[2.5]octan-6-yl 2-(2,2-difluoroethyl)-2,6-diazaspiro[3.4]octane-6-carboxylate], the inhibition in vivo at 0.3 mg/kg came out at 22.5%.

Take `CO[C@@H]1[C@H](OC(=O)N2CCC3(CCN(CC(F)F)CC3)C2)CC[C@]2(CO2)[C@H]1[C@@]1(C)O[C@@H]1CC=C(C)C` [Example 16, (3R,4S,5S,6R)-5-methoxy-4-((2R,3R)-2-methyl-3-(3-methylbut-2-enyl)oxiran-2-yl)-1-oxaspiro[2.5]octan-6-yl 8-(2,2-difluoroethyl)-2,8-diazaspiro[4.5]decane-2-carboxylate]: the inhibition in vivo at 0.3 mg/kg was found to be 23.4%.

`CO[C@@H]1[C@H](OC(=O)N2CC3CC3C2)CC[C@]2(CO2)[C@H]1[C@@]1(C)O[C@@H]1CC=C(C)C` (stereo partly drawn) [Example 21, (3R,4S,5S,6R)-5-methoxy-4-((2R,3R)-2-methyl-3-(3-methylbut-2-enyl)oxiran-2-yl)-1-oxaspiro[2.5]octan-6-yl 3-azabicyclo[3.1.0]hexane-3-carboxylate]: the inhibition in vivo at 0.3 mg/kg was 21.2%.

On to `CO[C@@H]1[C@H](OC(=O)N2CCC3(CCN(C)CC3)CC2)CC[C@]2(CO2)[C@H]1[C@@]1(C)O[C@@H]1CC=C(C)C` [Example 28, (3R,4S,5S,6R)-5-methoxy-4-((2R,3R)-2-methyl-3-(3-methylbut-2-enyl)oxiran-2-yl)-1-oxaspiro[2.5]octan-6-yl 9-methyl-3,9-diazaspiro[5.5]undecane-3-carboxylate], for which the inhibition in vivo at 0.3 mg/kg was 8%.

On to `CO[C@@H]1[C@H](OC(=O)N2CCC3(CC2)CNC(=O)C3)CC[C@]2(CO2)[C@H]1[C@@]1(C)O[C@@H]1CC=C(C)C` [Example 29, (3R,4S,5S,6R)-5-methoxy-4-((2R,3R)-2-methyl-3-(3-methylbut-2-enyl)oxiran-2-yl)-1-oxaspiro[2.5]octan-6-yl 3-oxo-2,8-diazaspiro[4.5]decane-8-carboxylate], for which the inhibition in vivo at 0.3 mg/kg was -0.5%.

With `CO[C@@H]1[C@H](OC(=O)N2CCC3(CCNC(=O)C3)CC2)CC[C@]2(CO2)[C@H]1[C@@]1(C)O[C@@H]1CC=C(C)C` [Example 30, (3R,4S,5S,6R)-5-methoxy-4-((2R,3R)-2-methyl-3-(3-methylbut-2-enyl)oxiran-2-yl)-1-oxaspiro[2.5]octan-6-yl 8-oxo-3,9-diazaspiro[5.5]undecane-3-carboxylate], the inhibition in vivo at 0.3 mg/kg worked out at 1.1%.

Consider `CO[C@@H]1[C@H](OC(=O)N2CCC3(CCN(C)C(=O)C3)CC2)CC[C@]2(CO2)[C@H]1[C@@]1(C)O[C@@H]1CC=C(C)C` [Example 31, (3R,4S,5S,6R)-5-methoxy-4-((2R,3R)-2-methyl-3-(3-methylbut-2-enyl)oxiran-2-yl)-1-oxaspiro[2.5]octan-6-yl 9-methyl-8-oxo-3,9-diazaspiro[5.5]undecane-3-carboxylate], for which the inhibition in vivo at 0.3 mg/kg amounted to 3.6%.

On to `CO[C@@H]1[C@H](OC(=O)N2C[C@@H]3[C@H](C2)[C@H]3C(=O)NCCN2CCOCC2)CC[C@]2(CO2)[C@H]1[C@@]1(C)O[C@@H]1CC=C(C)C` [Example 37, (1R,5S,6R)-(3R,4S,5S,6R)-5-methoxy-4-((2R,3R)-2-methyl-3-(3-methylbut-2-en-1-yl)oxiran-2-yl)-1-oxaspiro[2.5]octan-6-yl 6-((2-morpholinoethyl)carbamoyl)-3-azabicyclo[3.1.0]hexane-3-carboxylate], for which the inhibition in vivo at 0.3 mg/kg is 4.3%.

Consider `CO[C@@H]1[C@H](OC(=O)N2C[C@@H]3[C@@H](CN4CCOCC4)[C@@H]3C2)CC[C@]2(CO2)[C@H]1[C@@]1(C)O[C@@H]1CC=C(C)C` [Example 40, (1R,5S,6S)-((3R,4S,5S,6R)-5-methoxy-4-((2R,3R)-2-methyl-3-(3-methylbut-2-enyl)oxiran-2-yl)-1-oxaspiro[2.5]octan-6-yl) 6-(morpholinomethyl)-3-azabicyclo[3.1.0]hexane-3-carboxylate], for which the inhibition in vivo at 0.3 mg/kg turned out to be 11.1%.
